# Measurements from ChEMBL document CHEMBL5212743, “Selectivity Literature for EUbOPEN Chemogenomics Library wave 3” (2023).
# What was measured:
# [1] = biological target: T1, 5-hydroxytryptamine receptor 2B (Homo sapiens, UniProt P41595); assay: (§1) Selectivity interaction (Enzyme panel (kinases, GPCRs, ion channels, transporters)) EUB0000197b HTR2B
# [2] = biological target: T1, 5-hydroxytryptamine receptor 2B; assay: as §1; details: at 10 µM
# [3] = biological target: Serine/threonine-protein kinase BRSK1 (Homo sapiens) (UniProt Q8TDC3); assay: Selectivity interaction (Enzyme panel (kinases, GPCRs, ion channels, transporters)) EUB0000197b BRSK1; details: at 10 µM
# [4] = biological target: Protein N-lysine methyltransferase METTL21A (Homo sapiens) (UniProt Q8WXB1); assay: Selectivity interaction (Methyltransferase panel) EUB0000197b METTL21A
# [5] = biological target: Mitogen-activated protein kinase kinase kinase 12 (Homo sapiens) (UniProt Q12852); assay: Selectivity interaction (Enzyme panel (kinases, GPCRs, ion channels, transporters)) EUB0000197b DLK1; details: at 10 µM
# [6] = biological target: cAMP-dependent protein kinase catalytic subunit PRKX (Homo sapiens) (UniProt P51817); assay: Selectivity interaction (Enzyme panel (kinases, GPCRs, ion channels, transporters)) EUB0000197b PRKX; details: at 10 µM
# [7] = biological target: Ribosomal protein S6 kinase alpha-4 (Homo sapiens) (UniProt O75676); assay: Selectivity interaction (Enzyme panel (kinases, GPCRs, ion channels, transporters)) EUB0000197b RPS6KA4; details: at 10 µM
# [8] = biological target: cGMP-dependent protein kinase 2 (Homo sapiens) (UniProt Q13237); assay: Selectivity interaction (Enzyme panel (kinases, GPCRs, ion channels, transporters)) EUB0000197b PRKG2; details: at 10 µM
# [9] = biological target: T2, Histone-lysine N-methyltransferase EZH2 (Homo sapiens, UniProt Q15910); assay: Selectivity interaction (Methyltransferase panel (radioactive enzyme assay)) EUB0000216b EZH2
# [10] = biological target: T3, Histone-lysine N-methyltransferase 2A (Homo sapiens, UniProt Q03164); assay: Selectivity interaction (Methyltransferase panel (radioactive enzyme assay)) EUB0000216b MLL
# [11] = biological target: T4, Histone-lysine N-methyltransferase SETDB1 (Homo sapiens, UniProt Q15047); assay: Selectivity interaction (Methyltransferase panel (radioactive enzyme assay)) EUB0000216b SETDB1
# [12] = biological target: T5, Histone-lysine N-methyltransferase KMT5C (Homo sapiens, UniProt Q86Y97); assay: Selectivity interaction (Methyltransferase panel (radioactive enzyme assay)) EUB0000216b SUV420H2
# [13] = biological target: T6, Protein arginine N-methyltransferase 3 (Homo sapiens, UniProt O60678); assay: Selectivity interaction (Methyltransferase panel (radioactive enzyme assay)) EUB0000216b PRMT3
# [14] = biological target: T7, Histone-lysine N-methyltransferase EHMT1 (Homo sapiens, UniProt Q9H9B1); assay: Selectivity interaction (Methyltransferase panel (radioactive enzyme assay)) EUB0000216b EHMT1
# [15] = biological target: T8, Histone-lysine N-methyltransferase SUV39H2 (Homo sapiens, UniProt Q9H5I1); assay: Selectivity interaction (Methyltransferase panel (radioactive enzyme assay)) EUB0000216b SUV39H2
# [16] = biological target: T9, Histone-lysine N-methyltransferase SETD7 (Homo sapiens, UniProt Q8WTS6); assay: Selectivity interaction (Methyltransferase panel (radioactive enzyme assay)) EUB0000216b SETD7
# T9 sequence (Q8WTS6 whole entry): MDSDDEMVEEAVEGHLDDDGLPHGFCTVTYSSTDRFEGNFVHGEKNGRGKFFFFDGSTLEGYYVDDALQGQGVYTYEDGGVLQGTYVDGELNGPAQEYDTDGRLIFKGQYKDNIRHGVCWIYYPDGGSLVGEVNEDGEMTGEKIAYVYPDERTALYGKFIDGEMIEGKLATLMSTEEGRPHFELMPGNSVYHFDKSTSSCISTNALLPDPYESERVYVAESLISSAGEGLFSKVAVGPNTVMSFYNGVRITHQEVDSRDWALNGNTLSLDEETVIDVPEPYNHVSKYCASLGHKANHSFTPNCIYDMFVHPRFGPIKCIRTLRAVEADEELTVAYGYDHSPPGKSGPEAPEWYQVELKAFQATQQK
# [17] = biological target: T10, Protein arginine N-methyltransferase 5 (Homo sapiens, UniProt O14744); assay: Selectivity interaction (Methyltransferase panel (radioactive enzyme assay)) EUB0000216b PRMT5
# [18] = biological target: T11, Alpha-1A adrenergic receptor (Homo sapiens) (UniProt P35348); assay: Selectivity interaction (Receptor panel (Ricerca)) EUB0000216b ADRA1A; details: at 1 µM
# T11 sequence (whole entry): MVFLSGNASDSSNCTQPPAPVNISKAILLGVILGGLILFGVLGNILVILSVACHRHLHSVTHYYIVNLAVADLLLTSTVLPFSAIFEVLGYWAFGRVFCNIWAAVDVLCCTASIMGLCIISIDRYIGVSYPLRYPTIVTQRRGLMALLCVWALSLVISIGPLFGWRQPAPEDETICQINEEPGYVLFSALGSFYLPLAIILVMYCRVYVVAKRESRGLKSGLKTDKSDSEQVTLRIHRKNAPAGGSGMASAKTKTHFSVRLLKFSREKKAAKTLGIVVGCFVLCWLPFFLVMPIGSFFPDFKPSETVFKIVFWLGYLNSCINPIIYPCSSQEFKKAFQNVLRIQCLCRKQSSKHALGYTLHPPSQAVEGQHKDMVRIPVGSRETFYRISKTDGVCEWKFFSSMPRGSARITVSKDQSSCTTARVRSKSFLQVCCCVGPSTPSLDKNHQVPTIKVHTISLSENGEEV
# [19] = biological target: T12, N-lysine methyltransferase KMT5A (Homo sapiens, UniProt Q9NQR1); assay: Selectivity interaction (Methyltransferase panel (radioactive enzyme assay)) EUB0000216b SETD8
# T12 sequence (Q9NQR1 whole entry): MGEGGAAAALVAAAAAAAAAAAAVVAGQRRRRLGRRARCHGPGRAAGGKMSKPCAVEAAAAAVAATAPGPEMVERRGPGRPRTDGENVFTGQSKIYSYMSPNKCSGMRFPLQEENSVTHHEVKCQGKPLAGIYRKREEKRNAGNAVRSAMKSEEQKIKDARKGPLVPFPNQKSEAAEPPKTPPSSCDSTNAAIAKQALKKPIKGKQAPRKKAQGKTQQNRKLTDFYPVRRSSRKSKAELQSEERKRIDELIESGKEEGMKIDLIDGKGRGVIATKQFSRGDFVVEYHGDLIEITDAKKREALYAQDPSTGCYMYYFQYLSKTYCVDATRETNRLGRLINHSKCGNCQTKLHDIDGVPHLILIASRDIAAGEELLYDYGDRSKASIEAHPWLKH
# [20] = biological target: T13, Histone-lysine N-methyltransferase EHMT2 (Homo sapiens, UniProt Q96KQ7); assay: Selectivity interaction (Methyltransferase panel (radioactive enzyme assay)) EUB0000216b EHMT2
# Activin receptor type-1 = Activin receptor type-1 (Homo sapiens, UniProt Q04771); assay: Selectivity interaction (KinomeScan (DiscoverX, competition-binding assay)) EUB0000207b ACVR1
# [21] = biological target: T4, Histone-lysine N-methyltransferase SETDB1; assay: Selectivity interaction (Methyltransferase panel) EUB0000196bCl SETDB1
# Adenosine receptor A2b = Adenosine receptor A2b (Homo sapiens, UniProt P29275); assay: Selectivity interaction (Enzyme panel (ion channels, GPCRs, other targets)) EUB0000196bCl ADORA2B
# [22] = biological target: T8, Histone-lysine N-methyltransferase SUV39H2; assay: Selectivity interaction (Methyltransferase panel) EUB0000196bCl SUV39H2
# [23] = biological target: DNA (cytosine-5)-methyltransferase 1 (Homo sapiens, UniProt P26358); assay: Selectivity interaction (Methyltransferase panel) EUB0000196bCl DNMT1
# [24] = biological target: Histone-lysine N-methyltransferase NSD2 (Homo sapiens, UniProt O96028); assay: Selectivity interaction (Methyltransferase panel) EUB0000196bCl NSD2
# [25] = biological target: T2, Histone-lysine N-methyltransferase EZH2; assay: Selectivity interaction (Methyltransferase panel) EUB0000196bCl EZH2
# [26] = biological target: Histone-lysine N-methyltransferase KMT5B (Homo sapiens, UniProt Q4FZB7); assay: Selectivity interaction (Methyltransferase panel) EUB0000196bCl SUV420H1
# [27] = biological target: T10, Protein arginine N-methyltransferase 5; assay: Selectivity interaction (Methyltransferase panel) EUB0000196bCl PRMT5
# [28] = biological target: T7, Histone-lysine N-methyltransferase EHMT1; assay: Selectivity interaction (Methyltransferase panel) EUB0000196bCl EHMT1
# [29] = biological target: T13, Histone-lysine N-methyltransferase EHMT2; assay: Selectivity interaction (Methyltransferase panel) EUB0000196bCl EHMT2
# [30] = biological target: T12, N-lysine methyltransferase KMT5A; assay: Selectivity interaction (Methyltransferase panel) EUB0000196bCl SETD8
# [31] = biological target: T9, Histone-lysine N-methyltransferase SETD7; assay: Selectivity interaction (ITC) EUB0000196bCl SETD7
# [32] = biological target: Protein arginine N-methyltransferase 1 (Homo sapiens, UniProt Q99873); assay: Selectivity interaction (Methyltransferase panel) EUB0000196bCl PRMT1
# [33] = biological target: Protein arginine N-methyltransferase 8 (Homo sapiens, UniProt Q9NR22); assay: Selectivity interaction (Methyltransferase panel) EUB0000196bCl PRMT8
# [34] = biological target: T6, Protein arginine N-methyltransferase 3; assay: Selectivity interaction (Methyltransferase panel) EUB0000196bCl PRMT3
# [35] = biological target: Motilin receptor (Homo sapiens) (UniProt O43193); assay: Selectivity interaction (Enzyme panel (ion channels, GPCRs, other targets)) EUB0000196bCl MLN
# [36] = biological target: T5, Histone-lysine N-methyltransferase KMT5C; assay: Selectivity interaction (Methyltransferase panel) EUB0000196bCl SUV420H2
# [37] = biological target: T3, Histone-lysine N-methyltransferase 2A; assay: Selectivity interaction (Methyltransferase panel) EUB0000196bCl MLL
# [38] = biological target: Histone-lysine N-methyltransferase, H3 lysine-79 specific (Homo sapiens, UniProt Q8TEK3); assay: Selectivity interaction (Methyltransferase panel) EUB0000196bCl DOT1L
# [39] = biological target: Kappa-type opioid receptor (Homo sapiens, UniProt P41145); assay: Selectivity interaction (Enzyme panel (ion channels, GPCRs, other targets)) EUB0000196bCl OPRK1
# [40] = biological target: T14, Histone-lysine N-methyltransferase EZH1 (Homo sapiens, UniProt Q92800); assay: Selectivity interaction (Methyltransferase panel) EUB0000196bCl EZH1
# T14 sequence (Q92800 whole entry): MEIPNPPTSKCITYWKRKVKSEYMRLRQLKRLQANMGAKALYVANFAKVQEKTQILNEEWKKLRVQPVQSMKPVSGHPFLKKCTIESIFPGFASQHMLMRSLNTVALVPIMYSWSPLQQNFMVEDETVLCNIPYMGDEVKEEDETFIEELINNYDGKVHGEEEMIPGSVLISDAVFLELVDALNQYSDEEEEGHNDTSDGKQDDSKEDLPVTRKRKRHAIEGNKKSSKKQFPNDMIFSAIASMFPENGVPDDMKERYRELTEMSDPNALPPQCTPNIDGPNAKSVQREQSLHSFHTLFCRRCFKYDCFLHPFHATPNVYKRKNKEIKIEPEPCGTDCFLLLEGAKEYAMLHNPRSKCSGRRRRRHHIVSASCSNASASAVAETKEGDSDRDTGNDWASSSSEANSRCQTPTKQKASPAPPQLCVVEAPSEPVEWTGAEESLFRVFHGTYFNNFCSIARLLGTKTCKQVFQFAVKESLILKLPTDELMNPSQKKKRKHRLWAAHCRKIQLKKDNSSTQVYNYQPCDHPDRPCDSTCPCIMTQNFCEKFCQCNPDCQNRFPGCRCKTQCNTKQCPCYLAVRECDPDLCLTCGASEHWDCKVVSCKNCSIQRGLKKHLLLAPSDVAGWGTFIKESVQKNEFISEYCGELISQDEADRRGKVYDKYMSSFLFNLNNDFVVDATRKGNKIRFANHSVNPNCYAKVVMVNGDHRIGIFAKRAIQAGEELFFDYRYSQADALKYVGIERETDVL
# [41] = biological target: Histone-lysine N-methyltransferase SETD2 (Homo sapiens, UniProt Q9BYW2); assay: Selectivity interaction (Methyltransferase panel) EUB0000196bCl SETD2
# [42] = biological target: Bombesin receptor subtype-3 (Homo sapiens, UniProt P32247); assay: Selectivity interaction (Enzyme panel (ion channels, GPCRs, other targets)) EUB0000196bCl BRS3
# [43] = biological target: N-lysine methyltransferase SMYD2 (Homo sapiens, UniProt Q9NRG4); assay: Selectivity interaction (Methyltransferase panel) EUB0000196bCl SMYD2
# T1 sequence (P41595 whole entry): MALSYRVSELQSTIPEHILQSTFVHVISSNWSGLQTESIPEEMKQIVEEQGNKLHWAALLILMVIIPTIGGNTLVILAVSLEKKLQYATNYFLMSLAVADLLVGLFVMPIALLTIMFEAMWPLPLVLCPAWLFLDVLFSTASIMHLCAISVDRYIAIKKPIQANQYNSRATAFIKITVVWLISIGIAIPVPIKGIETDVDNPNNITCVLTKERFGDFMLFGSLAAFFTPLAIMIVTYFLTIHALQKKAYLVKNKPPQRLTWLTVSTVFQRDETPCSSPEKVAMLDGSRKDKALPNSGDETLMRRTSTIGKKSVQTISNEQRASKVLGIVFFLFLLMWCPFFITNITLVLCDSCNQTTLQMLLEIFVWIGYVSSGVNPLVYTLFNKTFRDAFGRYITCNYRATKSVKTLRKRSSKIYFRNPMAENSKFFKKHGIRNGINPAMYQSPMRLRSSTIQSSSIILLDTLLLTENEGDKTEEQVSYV
# T5 sequence (Q86Y97 whole entry): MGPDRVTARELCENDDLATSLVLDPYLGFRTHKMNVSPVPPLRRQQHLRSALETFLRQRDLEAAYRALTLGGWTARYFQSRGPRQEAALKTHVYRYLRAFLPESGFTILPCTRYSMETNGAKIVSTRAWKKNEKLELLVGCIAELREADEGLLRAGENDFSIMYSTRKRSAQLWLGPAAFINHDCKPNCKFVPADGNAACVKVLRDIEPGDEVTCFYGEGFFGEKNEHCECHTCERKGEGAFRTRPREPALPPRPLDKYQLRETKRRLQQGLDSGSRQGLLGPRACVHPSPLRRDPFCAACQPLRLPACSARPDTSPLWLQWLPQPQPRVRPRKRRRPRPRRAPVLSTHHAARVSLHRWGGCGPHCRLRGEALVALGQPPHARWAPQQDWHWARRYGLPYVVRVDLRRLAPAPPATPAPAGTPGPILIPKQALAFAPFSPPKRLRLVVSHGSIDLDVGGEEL
# T7 sequence (Q9H9B1 whole entry): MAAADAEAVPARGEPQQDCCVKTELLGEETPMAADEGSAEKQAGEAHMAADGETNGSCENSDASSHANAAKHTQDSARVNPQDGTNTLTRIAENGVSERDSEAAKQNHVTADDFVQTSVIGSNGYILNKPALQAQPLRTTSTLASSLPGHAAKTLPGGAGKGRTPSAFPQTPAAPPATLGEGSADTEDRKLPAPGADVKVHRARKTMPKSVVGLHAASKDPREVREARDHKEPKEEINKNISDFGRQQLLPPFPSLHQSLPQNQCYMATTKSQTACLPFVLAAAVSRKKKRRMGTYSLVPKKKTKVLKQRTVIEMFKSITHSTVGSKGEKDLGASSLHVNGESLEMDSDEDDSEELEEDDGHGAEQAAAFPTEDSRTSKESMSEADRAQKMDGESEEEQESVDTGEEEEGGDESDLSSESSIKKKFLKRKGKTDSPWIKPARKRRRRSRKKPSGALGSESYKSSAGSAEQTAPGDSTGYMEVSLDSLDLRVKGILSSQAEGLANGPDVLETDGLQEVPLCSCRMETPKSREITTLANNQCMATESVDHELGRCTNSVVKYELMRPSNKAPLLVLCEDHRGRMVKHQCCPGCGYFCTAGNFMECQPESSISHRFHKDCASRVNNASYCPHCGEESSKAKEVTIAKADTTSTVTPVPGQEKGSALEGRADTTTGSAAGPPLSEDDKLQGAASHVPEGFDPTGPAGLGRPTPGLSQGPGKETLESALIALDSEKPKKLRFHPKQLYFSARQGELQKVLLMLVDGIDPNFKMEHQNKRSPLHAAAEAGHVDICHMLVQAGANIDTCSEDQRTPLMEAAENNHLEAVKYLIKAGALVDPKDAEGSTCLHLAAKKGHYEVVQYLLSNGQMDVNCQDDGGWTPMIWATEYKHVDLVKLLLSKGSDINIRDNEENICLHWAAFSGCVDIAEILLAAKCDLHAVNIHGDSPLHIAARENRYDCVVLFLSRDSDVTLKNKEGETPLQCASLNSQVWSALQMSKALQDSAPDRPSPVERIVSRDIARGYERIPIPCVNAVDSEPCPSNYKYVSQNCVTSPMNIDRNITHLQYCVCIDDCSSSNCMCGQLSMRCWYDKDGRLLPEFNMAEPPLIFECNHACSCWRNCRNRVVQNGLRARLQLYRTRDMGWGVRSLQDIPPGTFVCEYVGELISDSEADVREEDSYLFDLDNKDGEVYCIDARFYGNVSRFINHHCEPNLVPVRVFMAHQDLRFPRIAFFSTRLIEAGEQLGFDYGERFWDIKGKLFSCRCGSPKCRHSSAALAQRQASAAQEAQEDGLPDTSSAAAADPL
# T10 sequence (O14744 whole entry): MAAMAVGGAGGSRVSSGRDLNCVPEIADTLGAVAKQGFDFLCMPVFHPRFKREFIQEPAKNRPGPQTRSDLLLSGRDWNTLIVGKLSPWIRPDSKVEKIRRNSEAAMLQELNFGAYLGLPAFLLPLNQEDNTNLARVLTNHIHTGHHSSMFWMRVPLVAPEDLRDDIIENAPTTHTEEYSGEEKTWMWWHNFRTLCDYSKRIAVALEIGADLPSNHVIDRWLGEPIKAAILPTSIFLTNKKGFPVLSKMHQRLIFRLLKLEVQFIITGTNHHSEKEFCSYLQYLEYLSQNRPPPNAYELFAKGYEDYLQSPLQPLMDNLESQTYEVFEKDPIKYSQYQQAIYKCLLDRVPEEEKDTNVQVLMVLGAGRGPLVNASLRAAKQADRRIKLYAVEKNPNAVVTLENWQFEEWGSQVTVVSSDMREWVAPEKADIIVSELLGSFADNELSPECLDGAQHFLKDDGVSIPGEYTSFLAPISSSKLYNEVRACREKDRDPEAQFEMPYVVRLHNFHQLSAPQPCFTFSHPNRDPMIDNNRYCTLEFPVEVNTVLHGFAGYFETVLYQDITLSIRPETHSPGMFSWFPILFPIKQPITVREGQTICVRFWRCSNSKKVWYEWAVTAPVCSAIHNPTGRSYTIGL
# T2 sequence (Q15910 whole entry): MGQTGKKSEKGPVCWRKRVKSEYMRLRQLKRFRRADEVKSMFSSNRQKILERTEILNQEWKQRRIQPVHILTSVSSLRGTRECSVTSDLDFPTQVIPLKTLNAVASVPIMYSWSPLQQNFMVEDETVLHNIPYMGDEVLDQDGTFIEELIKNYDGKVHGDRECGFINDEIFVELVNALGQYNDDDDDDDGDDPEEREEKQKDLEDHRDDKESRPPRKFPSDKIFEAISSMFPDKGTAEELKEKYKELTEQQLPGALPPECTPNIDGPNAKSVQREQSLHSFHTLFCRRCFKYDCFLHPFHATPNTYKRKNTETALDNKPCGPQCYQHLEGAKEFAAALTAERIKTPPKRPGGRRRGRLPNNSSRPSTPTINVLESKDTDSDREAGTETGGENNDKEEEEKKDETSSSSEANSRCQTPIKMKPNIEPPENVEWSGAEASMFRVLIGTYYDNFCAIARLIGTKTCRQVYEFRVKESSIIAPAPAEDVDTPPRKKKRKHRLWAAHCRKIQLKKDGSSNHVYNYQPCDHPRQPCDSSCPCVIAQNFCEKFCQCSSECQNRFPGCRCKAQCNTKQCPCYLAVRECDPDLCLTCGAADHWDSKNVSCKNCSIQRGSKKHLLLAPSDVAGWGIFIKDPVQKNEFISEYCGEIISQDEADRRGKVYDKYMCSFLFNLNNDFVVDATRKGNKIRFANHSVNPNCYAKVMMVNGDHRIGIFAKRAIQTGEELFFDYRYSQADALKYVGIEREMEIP
# T13 sequence (Q96KQ7 whole entry): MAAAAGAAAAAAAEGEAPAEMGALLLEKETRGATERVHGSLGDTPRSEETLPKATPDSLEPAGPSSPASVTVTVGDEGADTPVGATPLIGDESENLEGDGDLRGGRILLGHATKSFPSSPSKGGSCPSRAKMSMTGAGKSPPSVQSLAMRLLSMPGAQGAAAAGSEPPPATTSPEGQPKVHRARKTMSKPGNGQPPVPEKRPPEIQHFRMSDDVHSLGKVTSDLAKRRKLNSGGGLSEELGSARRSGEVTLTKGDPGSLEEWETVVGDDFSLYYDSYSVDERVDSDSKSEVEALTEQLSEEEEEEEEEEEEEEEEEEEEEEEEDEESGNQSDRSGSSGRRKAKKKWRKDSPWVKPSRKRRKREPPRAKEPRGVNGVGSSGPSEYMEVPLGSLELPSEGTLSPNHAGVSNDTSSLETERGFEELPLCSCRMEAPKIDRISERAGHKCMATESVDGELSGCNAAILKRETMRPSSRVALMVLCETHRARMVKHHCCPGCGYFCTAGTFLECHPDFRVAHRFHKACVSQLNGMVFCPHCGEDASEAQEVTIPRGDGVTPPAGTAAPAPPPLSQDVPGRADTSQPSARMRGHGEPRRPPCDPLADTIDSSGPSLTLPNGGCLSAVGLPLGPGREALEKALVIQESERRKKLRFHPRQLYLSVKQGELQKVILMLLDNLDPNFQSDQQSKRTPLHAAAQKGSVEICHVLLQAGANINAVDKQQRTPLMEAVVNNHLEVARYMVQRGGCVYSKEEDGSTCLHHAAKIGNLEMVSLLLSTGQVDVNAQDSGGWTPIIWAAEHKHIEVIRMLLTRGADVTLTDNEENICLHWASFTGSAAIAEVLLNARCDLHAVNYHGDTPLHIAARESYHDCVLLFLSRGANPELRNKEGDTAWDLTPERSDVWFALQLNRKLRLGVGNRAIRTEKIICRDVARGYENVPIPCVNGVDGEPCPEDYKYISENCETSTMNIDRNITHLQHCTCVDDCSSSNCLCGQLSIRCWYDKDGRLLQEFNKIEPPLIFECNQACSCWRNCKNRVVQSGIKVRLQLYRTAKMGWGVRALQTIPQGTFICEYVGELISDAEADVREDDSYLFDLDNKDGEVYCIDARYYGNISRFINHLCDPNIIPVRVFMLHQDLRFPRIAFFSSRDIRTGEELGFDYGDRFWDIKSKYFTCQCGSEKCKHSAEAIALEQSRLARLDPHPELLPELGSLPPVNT
# Sequence of Protein N-lysine methyltransferase METTL21A (Homo sapiens) (Q8WXB1 whole entry): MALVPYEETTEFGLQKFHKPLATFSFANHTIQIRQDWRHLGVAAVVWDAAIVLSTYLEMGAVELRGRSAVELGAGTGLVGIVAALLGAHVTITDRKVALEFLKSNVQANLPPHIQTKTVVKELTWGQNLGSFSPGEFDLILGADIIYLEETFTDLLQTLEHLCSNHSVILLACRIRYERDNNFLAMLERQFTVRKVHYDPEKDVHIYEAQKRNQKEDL
structure (smiles),measurement,setting,value
O=C(NCC(=O)N1CCCC1)Nc1ccc2cnccc2c1,Ki,[1],> 15 µM
same,% of control,[2],69%
same,% of control,[3],56%
same,% of control,[4],60%
same,% of control,[5],60%
same,% of control,[6],61%
same,% of control,[7],55%
same,% of control,[8],58%
CC(C)N(CCCNC(=O)Nc1ccc(C(C)(C)C)cc1)C[C@H]1O[C@@H](n2cc(Br)c3c(N)ncnc32)[C@H](O)[C@@H]1O,IC50,[9],> 100 µM
same,IC50,[10],> 100 µM
same,IC50,[11],> 100 µM
same,IC50,[12],> 100 µM
same,IC50,[13],> 100 µM
same,IC50,[14],> 100 µM
same,IC50,[15],> 100 µM
same,IC50,[16],> 100 µM
same,IC50,[17],> 100 µM
same,% of inhibition,[18],22%
same,IC50,[19],> 100 µM
same,IC50,[20],> 100 µM
COc1cc(Nc2ccnc3ccc(Br)cc23)cc(OC)c1OC,Kd,Activin receptor type-1,0.98 µM
O=C([C@@H](Cc1cccc(C(F)(F)F)c1)NS(=O)(=O)c1cc(F)c2c(c1)CCNC2)N1CCCC1,EC50,[21],> 10 µM
same,Ki,Adenosine receptor A2b,1.3 µM
same,EC50,[22],> 10 µM
same,EC50,[23],> 10 µM
same,EC50,[24],> 10 µM
same,EC50,[25],> 10 µM
same,EC50,[26],> 10 µM
same,EC50,[27],> 10 µM
same,EC50,[28],> 10 µM
same,EC50,[29],> 10 µM
same,EC50,[30],> 10 µM
same,Kd,[31],0.018 µM
same,EC50,[32],> 10 µM
same,EC50,[33],> 10 µM
same,EC50,[34],> 10 µM
same,Ki,[35],7.2 µM
same,EC50,[36],> 10 µM
same,EC50,[37],> 10 µM
same,EC50,[38],> 10 µM
same,Ki,[39],3.8 µM
same,EC50,[40],> 10 µM
same,EC50,[41],> 10 µM
same,Ki,[42],8.1 µM
same,EC50,[43],> 10 µM
